Data on 3 molecules can be found in patent US5686495A, “Substituted hydrazinedicarboximidamides and methods of use thereof” (Cambridge NeuroScience, Inc., priority 1995, dated 1997).

The test system of assay [1] is 3H-glutamate release from rat brain synaptosomes. In words: Inhibition of K+-evoked 3H-glutamate release from synaptosomes (rapid superfusion). It counts as cell-based. Conditions: for inhibition at 10 µM: read-out: Inhibition of Glutamate Release (Persistent Component), % Inhibition @ 10 uM; for inhibition at 30 µM: read-out: inhibition of glutamate release; for activity at 30 µM / activity at 100 µM: read-out: relative level of glutamate release. The protocol: To study the release of presynaptic ^3 H-glutamate, synaptosomes from young rats were used. CD Male rats of 4 to 6 weeks (50-75 g) were used for the preparation of synaptosomes. Rats were killed by decapitation with guillotine and the skull bone was opened in the center with the pointed blade of dissection scissors. The bone is then peeled away with a bone cutter and the brain is pried with a micro spatula. The cerebellum is removed and the rest of the brain is placed in 35 ml of 0.32M Sucrose solution and homogenized in a Thomas glass teflon homogenizer C at the maximum power setting (about 450 rpm) with 16 strokes. The pestle is rinsed with 5 ml of sucrose solution and added to the homogenate. The homogenate is centrifuged for 10 min at 3500 rpm (1500 g) in a SS-34 rotor in Sorvall RC-5B. The resulting pellet (P1) is discarded and the supernatant (S1) is recentrifuged for 20 min at 8700 rpm (8500 g). The supernatant (S2) is discarded and the pellet (P2) is resuspended in 5 ml of 0.32M sucrose and hand homogenized with 4 strokes (Thomas C) and the volume was made up to 8 ml. This homogenate was layered on 20 ml of 0.8M sucrose solution in two centrifuge tubes and spun for 25 minutes at 8700 rpm (8500 g). At the end of this spin, most of the myelin stays at the interphase of 0.32M and 0.8M sucrose and mitochondria pellet as a brown pellet. The synaptosomes are dispersed in the 0.8M sucrose. Using a 10 ml pipette, the 0.8M sucrose layer is collected (without disturbing the top myelin layer or the pellet) and diluted slowly with an equal volume of chilled basal buffer, while stirring gently with a Pasteur pipette. This diluted solution is centrifuged for 10 min at 10,000 rpm (12,000 g) and the pellet is resuspended in 1.5 ml of basal buffer and hand-homogenized in a Wheaton glass-glass 7 ml homogenizer with 8 strokes.
The synaptosomal homogenate is diluted 1 ml to 10 ml with basal buffer. This dilution gives a protein concentration of 500 to 600 μg/ml. One hundred μl of this diluted prep with 50-60 μg of protein is used for each superfusion event. […] The diluted synaptosomal solution was kept on ice until the end of the experiment.
^3 H-glutamate (purchased from NEN) is stored in the refrigerator. Pipette 6 μl ([…]; 40 to 55 Ci/mmol) into a disposable test tube. Add 100 μl of diluted prep and mix gently on vortex and incubate at 30° C. for 10 min. ^3 H-glutamate is taken up by sodium-coupledglutamate transporter present in synaptosomal membranes. After 10 min, dilute the incubation mixture with 690 μl of basal buffer. This solution is then transferred in Tygon tubing that is connected to the synaptosome loading chamber. Using a syringe filler with air, the solution is forced through the Millipore SC--GF/F--Millipore SC filter sandwich. These filters retain the synaptosomes and the solution flows through.
An important component of the superfusion setup is the custom made stainless steel "General Valve" three-valve solenoid operated superfusion chamber with an outlet for the effluent. The three inlets are connected to stainless steel buffer reservoirs that contain (1) wash buffer, (2) control buffer and (3) experimental buffer which are kept under 40 psi of nitrogen gas through teflon tubing connections. The superfusion is controlled through a menu-driven program on an Apple IIe computer. See Turner, J. T. et al., Anal. Biochem. 178:8-16 (1989), and U.S. Pat. No. 4,891,185, the disclosures of which are fully incorporated by reference herein.
The superfusion chamber has a teflon bushing and a stainless steel washer fixed with the flat surface facing the filters. A GF/B filter disc is placed first in the chamber to eliminate the switching related artifacts. The synaptosome loaded sandwich is then placed facing the synaptosomes into the flow followed by RA filter, stainless steel screen and a washer with the flat side facing the screen.

A further assay concerns the target sigma receptor. In words: Sigma receptor binding against 3H-DTG.
The test system of assay [2] is potassium-stimulated 45Ca uptake of synaptosomes. The experiment in a line: Potassium-stimulated 45Ca uptake into synaptosomes. In kind it is cell-based, rat. The protocol:
Several compounds were also tested to determine whether the Ca^2+ dependent and independent components of glutamate release are related to the blockage of ^45 Ca uptake. Calcium uptake is one step in the cascade of events which occur in neuronal cell death from ischemia. See Bassaclough and Leach, Current Patents Ltd., 2-27. The Ca-flux protocol is as follows. Rat brain synaptosomes were prepared according to Hajos, Brain Res. 93:485 (1975). Synaptosomes were suspended in low potassium "LK" buffer (containing 3 mM KCl) at 2 mg/ml. […] After 5 seconds, the ^45 Ca flux was stopped with 0.9 ml quench solution (LK+10 mM EGTA). The solution was filtered under vacuum and the filters washed with 15 ml of quench buffer. The effect of drug is expressed as % inhibition (or block) of control potassium-stimulated ^45 Ca influx. This method is an adaptation of the method disclosed by Nachsen and Blaustein, J. Physiol. 361:251-268 (1985).

Assay [3] relates to Ca2+-dependent glutamate release stimulated with the sodium channel activator veratridine. In words: Glutamate release of synaptosomes depolarized with veratridine. In kind it is cell-based. The conditions noted are these: various concentrations.
Assay [4] deals with ω-conotoxin-sensitive N-type calcium channels. In words: Electrophysiology on N-type calcium channels of single dorsal root ganglion cells. It counts as cell-based, bullfrog. On the procedure:
Single bullfrog dorsal root ganglion cells, which express ω-conotoxin-sensitive N-type calcium channels, were treated with 5 uM of N,N'-di(acenaphthyl) guanidine. The solution also contained (in mM) CsCl, 90; creatine phosphate, 5; MgATP, 5; tris GTP, 0.3; EGTA, 10; HEPES, 10; pH 7.2. […] Calcium channel rundown during the recording period may account for the lack of complete reversal of inhibition. This further supports the hypothesis that certain substituted guanidines inhibit neurotransmitter release by […] presynaptic calcium channels.

Assay [5] relates to sodium channels in N1E-115 neuroblastoma cells. In words: Whole cell sodium currents in voltage clamped N1E-115 neuroblastoma cells. In kind it is cell-based. The text has this:
Whole cell sodium currents were elicited in voltage clamped N1E-115 neuroblastoma cells, using the stimulus protocol shown on the top of FIG. 7.

Assay [6] relates to hippocampal slices (Schaffer collateral synaptic potentials). In words: Hippocampal slice electrophysiology of excitatory synaptic transmission (field EPSP, population spikes). Conditions: for inhibition at 20 µM: Rattus norvegicus. Also on record: species or system Sprague-Dawley rats. The protocol: Transverse sections of hippocampus were obtained from 4-6 week old Sprague-Dawley rats and maintained under standard conditions. […] Extracellular excitatory post synaptic potentials (EPSP's) were recorded by placing a saline-filled glass microelectrode in either the stratum radiatum or stratum lacunosum. Population spikes were recorded by placing an electrode in the stratum pyramidole.

[7] abbreviates: Rattus norvegicus, read-out: Inhibition of 45Ca Uptake, % Inhibition @ 10 uM (SEM).
[8] abbreviates: Rattus norvegicus; read-out: Inhibition of 45Ca Uptake, IC50.
The mark [9] stands for this setting: bath application, listed as N,N'-di(5-acenaphthyl)guanidine, Hydrobromide.

“Also recorded” adds a separate entry of the source. Where a name gives a salt, the structure may show the parent alone. Read-outs that look alike come from different tables or passages of the source.

Take `N=C(NC12CC3CC(CC(C3)C1)C2)NC12CC3CC(CC(C3)C1)C2` [N,N'-di-(adamantan-1-yl)guanidine]: the “concentration dependence of 3H-glutamate release (FIG. 2)” value in assay [1] (0, 10, 30, 100 uM, 2.1 second K+ depolarizing pulse) is “decreasing release of glutamate from synaptosomes”. Further, the inhibition at 10 µM in assay [1] (Rattus norvegicus) is 49%; in assay [2] (setting [7]), 25%. Besides, in assay [1] (Rattus norvegicus), the inhibition at 30 µM stood at 55%. The activity at 30 µM in assay [1] (Rattus norvegicus) was 45%. Besides, in assay [1] (Rattus norvegicus), the activity at 100 µM turned out to be 13%. Besides, the IC50 on sigma receptor was 0.0165 µM; in assay [2] (Rattus norvegicus; FIG. 6 curve fits; read-out: IC50, inhibition of potassium-stimulated Ca uptake of synaptosomes (FIG. 6)), 6.6 µM; in assay [2] (setting [8]), 25 ± 9 µM.
Take `N=C(NC1C2CC3CC(C2)CC1C3)NC1C2CC3CC(C2)CC1C3` (centres unmarked) [N,N'-di-(adamantan-2-yl)guanidine, N,N'-(Adamantan-2-yl)guanidine Hydrochloride]: in assay [1] (Rattus norvegicus), the inhibition at 10 µM turned out to be 60%, the inhibition at 30 µM turned out to be 60%, the activity at 30 µM is 40% and the activity at 100 µM is 20%. Moreover, at sigma receptor, the IC50 stood at 0.0927 µM. In assay [2] (setting [7]), the inhibition at 10 µM worked out at 35%. For the same molecule, the IC50 in assay [2] (setting [8]) was 16.1 ± 10 µM. In addition, in assay [3], the “inhibition of veratridine-stimulated glutamate release (FIG. 5)” value is given as “inhibition of glutamate release in a dose dependent manner”.
For `Br.N=C(Nc1ccc2c3c(cccc13)CC2)Nc1ccc2c3c(cccc13)CC2` [N,N'-Bis(5-acenaphthyl)guanidine, N,N'-Bis (5-Acenaphthyl)Guanidine Hydrobromide], in assay [1] (0, 1, 3, 10 uM, K+ depolarization), the “inhibition of Ca2+-dependent [3H]glutamate release (FIG. 3)” value is “potent inhibitor of glutamate release”. The “selectivity between persistent and transient component of Ca2+-dependent glutamate release” value in assay [1] (3-10 uM) is “blocks the persistent component of Ca^2+ -dependent glutamate release more than the initial transient component”. The inhibition at 10 µM in assay [1] (Rattus norvegicus) came to 92%; in assay [2] (setting [7]), 46%. The IC50 in assay [1] (Rattus norvegicus, read-out: Inhibition of Glutamate Release (Persistent Component), IC50) came out at 3 µM; in assay [2] (Rattus norvegicus, read-out: Inhibition of 45Ca Uptake, IC50), 10.7 ± 3 µM. The “inhibition of N-type calcium channel current” value in assay [4] (5 uM) is recorded as “about 40%”; in assay [4] (20 uM), “inhibited nearly all of the current”. Besides, the “reversal of N-type current inhibition” value in assay [4] (in about 6 minutes) is reported as “Most of the inhibition was reversed”. Besides, the activity at 10 µM in assay [2] (Rattus norvegicus, read-out: % Uptake vs. Control) worked out at 43%. The “block of inward sodium currents, average” value in assay [5] (30 uM, pressure ejection, N=5 cells) amounted to 40%. For the same molecule, the “inhibition of inward sodium current in the cell shown (FIG. 7)” value in assay [5] (30 uM, single cell of FIG. 7) was 49%. In addition, the “reversal of sodium current block” value in assay [5] (following washout) is given as “partially reversed following washout”. Moreover, the inhibition at 20 µM in assay [6] (bath application, read-out: reduction of field EPSP amplitude) fell in the range of 80 to 90%; in assay [6] (bath application, read-out: reduction of population spike amplitude) it was 80 to 90%. The “effect on field EPSP” value in assay [6] (setting [9]) was “reversibly blocked; also recorded: almost completely eliminated the field EPSP”. Also, in assay [6] (setting [9]), the “effect on population spikes” value is “completely eliminated population spikes; also recorded: reversibly blocked these population spikes”. In assay [6] (following washout, listed as N,N'-di(5-acenaphthyl)guanidine, Hydrobromide), the reversibility of effect entry was “completely reversible following washout; also recorded: fully reversible following washout; also recorded: fully recovered following washout”.
